# Data as given in US11629171B2, “Beta-hairpin peptidomimetics” (POLYPHOR AG, priority 2017, dated 2023).
# Where a SMILES comes first, the peptide text is derived from it. Bridges are numbered along the chain shown (N, C = ends). Roman numbers before positions name the chains, in order. [ ]: non-standard residue; d: D form. Thr(ol) = C[C@@H](O)[C@H](N)CO; Pen = CC(C)(S)[C@H](N)C(=O)O; Tle = CC(C)(C)[C@H](N)C(=O)O; Hiv = CC(C)[C@H](O)C(=O)O; dDab = NCC[C@@H](N)C(=O)O; hSer = N[C@@H](CCO)C(=O)O; Dab = NCC[C@H](N)C(=O)O
# How the values were obtained:
# Assay type in all cases: cell-based
# [1] = system: Acinetobacter baumannii 872842; conditions: 872842
# Summary of the method: (§1)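 Broth microdilution per CLSI; MH-II (cation-adjusted) + 0.002% P-80 final; ~10^6 CFU/mL inoculum; 2-fold peptide series; 35° C, 18-20 h; MIC = no visible growth, μg/mL.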
# [2] = system: Acinetobacter baumannii DSM 30008; conditions: DSM 30008
# Summary of the method: as §1
# [3] = system: Enterobacter cloacae 848840; conditions: 848840
# Summary of the method: as §1
# [4] = system: Escherichia coli 926415; conditions: 926415
# Summary of the method: as §1
# [5] = system: Escherichia coli ATCC 25922; conditions: ATCC 25922
# Summary of the method: as §1
# [6] = system: Klebsiella pneumoniae 968733; conditions: 968733
# Summary of the method: as §1
# [7] = system: Klebsiella pneumoniae SSI #3010; conditions: SSI #3010
# Summary of the method: as §1
# [8] = system: Pseudomonas aeruginosa ATCC 27853; conditions: ATCC 27853
# Summary of the method: as §1
# [9] = system: human red blood cells (hRBC); experiment: Hemolysis; conditions: red cells of human, 1 h, 200
# Summary of the method: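 Percent lysis of human red cells was derived from OD540 of the supernatant, referenced to 2% Triton X-100, after a 1 h, 37° C incubation of 20% (v/v) cells with 200 μg/mL peptide.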
SMILES,MIC [1] [µg/mL],MIC [2] [µg/mL],MIC [3] [µg/mL],MIC [4] [µg/mL],MIC [5] [µg/mL],MIC [6] [µg/mL],MIC [7] [µg/mL],MIC [8] [µg/mL],Hemolysis at 200 μg/mL [9] [%]
CC(C)C[C@@H]1NC(=O)[C@@H](CC(C)C)NC(=O)[C@H](CCN)NC(=O)[C@@H](NC(=O)[C@H](CCN)NC(=O)[C@@H](NC(=O)[C@H](CCN)NC(=O)CC[C@@H]2NC(=O)[C@H](CCN)NC(=O)[C@H](Cc3ccc(O)cc3)NC(=O)[C@@H](NC(=O)[C@@H](O)C(C)C)CSSC[C@@H](C(=O)N[C@H](CO)[C@@H](C)O)NC(=O)[C@H](C(C)(C)C)NC(=O)[C@H](CCO)NC(=O)[C@H](Cc3c[nH]c4ccccc34)NC(=O)[C@H](CCO)NC(=O)[C@@H](CCN)NC2=O)[C@@H](C)O)CCNC(=O)[C@H]([C@@H](C)O)NC(=O)[C@H](CCN)NC(=O)[C@H](CCN)NC1=O [Ex. 81] (I: H-[Hiv]CY[Dab]E[dDab][hSer]W[hSer][Tle]C[Thr(ol)] / II: [Dab]T[Dab][Dab][Dab][dL]L[Dab][Dab]T; disulfide I:2-I:11; amide I:5-II:N; lactam II:4-II:C),0.25,0.125,0.125,0.125,0.0625,0.125,0.0625,0.125,<1
CC(C)C[C@@H]1NC(=O)[C@@H](CC(C)C)NC(=O)[C@H](CCN)NC(=O)[C@@H](NC(=O)[C@H](CCN)NC(=O)[C@@H](NC(=O)[C@H](CCN)NC(=O)CC[C@@H]2NC(=O)[C@H](CCN)NC(=O)[C@H](Cc3ccc(O)cc3)NC(=O)[C@@H](NC(=O)[C@@H](O)C(C)C)CSSC[C@@H](C(=O)N[C@H](CO)[C@@H](C)O)NC(=O)[C@H](C(C)(C)C)NC(=O)[C@H](CCO)NC(=O)[C@H](Cc3c[nH]c4ccccc34)NC(=O)[C@H]([C@@H](C)O)NC(=O)[C@@H](CCN)NC2=O)[C@@H](C)O)CCNC(=O)[C@H]([C@@H](C)O)NC(=O)[C@H](CCN)NC(=O)[C@H](CCN)NC1=O [Ex. 82] (I: H-[Hiv]CY[Dab]E[dDab]TW[hSer][Tle]C[Thr(ol)] / II: [Dab]T[Dab][Dab][Dab][dL]L[Dab][Dab]T; disulfide I:2-I:11; amide I:5-II:N; lactam II:4-II:C),0.25,0.125,0.25,0.5,0.0625,0.25,0.0625,0.25,<1
CC(C)C[C@@H]1NC(=O)[C@@H](CC(C)C)NC(=O)[C@H](CCN)NC(=O)[C@@H](NC(=O)[C@H](CCN)NC(=O)[C@@H](NC(=O)[C@H](CCN)NC(=O)CC[C@@H]2NC(=O)[C@H](CCN)NC(=O)[C@H](Cc3ccc(O)cc3)NC(=O)[C@@H](NC(=O)[C@@H](O)C(C)C)CSSC[C@@H](C(=O)N[C@H](CO)[C@@H](C)O)NC(=O)[C@H](C(C)(C)C)NC(=O)[C@H](CCO)NC(=O)[C@H](Cc3c[nH]c4ccccc34)NC(=O)[C@H](CO)NC(=O)[C@@H](CCN)NC2=O)[C@@H](C)O)CCNC(=O)[C@H]([C@@H](C)O)NC(=O)[C@H](CCN)NC(=O)[C@H](CCN)NC1=O [Ex. 83] (I: H-[Hiv]CY[Dab]E[dDab]SW[hSer][Tle]C[Thr(ol)] / II: [Dab]T[Dab][Dab][Dab][dL]L[Dab][Dab]T; disulfide I:2-I:11; amide I:5-II:N; lactam II:4-II:C),0.125,0.0625,0.125,0.25,0.0625,0.25,0.0625,0.125,<1
CC(C)C[C@@H]1NC(=O)[C@@H](CC(C)C)NC(=O)[C@H](CCN)NC(=O)[C@@H](NC(=O)[C@H](CCN)NC(=O)[C@@H](NC(=O)[C@H](CCN)NC(=O)CC[C@@H]2NC(=O)[C@H](CCN)NC(=O)[C@H](Cc3ccc(O)cc3)NC(=O)[C@@H](NC(=O)[C@@H](O)C(C)C)C(C)(C)SSC[C@@H](C(=O)N[C@H](CO)[C@@H](C)O)NC(=O)[C@H](C(C)(C)C)NC(=O)[C@H](CO)NC(=O)[C@H](Cc3c[nH]c4ccccc34)NC(=O)[C@H](CCO)NC(=O)[C@@H](CCN)NC2=O)[C@@H](C)O)CCNC(=O)[C@H]([C@@H](C)O)NC(=O)[C@H](CCN)NC(=O)[C@H](CCN)NC1=O [Ex. 84] (I: H-[Hiv][Pen]Y[Dab]E[dDab][hSer]WS[Tle]C[Thr(ol)] / II: [Dab]T[Dab][Dab][Dab][dL]L[Dab][Dab]T; disulfide I:2-I:11; amide I:5-II:N; lactam II:4-II:C),0.125,0.125,0.25,0.125,0.0625,0.125,0.125,0.25,<1
CC(C)C[C@@H]1NC(=O)[C@@H](CC(C)C)NC(=O)[C@H](CCN)NC(=O)[C@@H](NC(=O)[C@H](CCN)NC(=O)[C@@H](NC(=O)[C@H](CCN)NC(=O)CC[C@@H]2NC(=O)[C@H](CCN)NC(=O)[C@H](Cc3ccc(O)cc3)NC(=O)[C@@H](NC(=O)[C@@H](O)C(C)C)CSSC(C)(C)[C@@H](C(=O)N[C@H](CO)[C@@H](C)O)NC(=O)[C@H](C(C)(C)C)NC(=O)[C@H](CO)NC(=O)[C@H](Cc3c[nH]c4ccccc34)NC(=O)[C@H](CCO)NC(=O)[C@@H](CCN)NC2=O)[C@@H](C)O)CCNC(=O)[C@H]([C@@H](C)O)NC(=O)[C@H](CCN)NC(=O)[C@H](CCN)NC1=O [Ex. 85] (I: H-[Hiv]CY[Dab]E[dDab][hSer]WS[Tle][Pen][Thr(ol)] / II: [Dab]T[Dab][Dab][Dab][dL]L[Dab][Dab]T; disulfide I:2-I:11; amide I:5-II:N; lactam II:4-II:C),0.25,0.25,0.125,0.25,0.0625,0.25,0.125,0.25,1
CC(=O)N[C@@H](C(=O)N[C@H]1CSSC[C@@H](C(=O)N[C@H](CO)[C@@H](C)O)NC(=O)[C@H](C(C)(C)C)NC(=O)[C@H](CO)NC(=O)[C@H](Cc2c[nH]c3ccccc23)NC(=O)[C@H](CCO)NC(=O)[C@@H](CCN)NC(=O)[C@H](CCC(=O)N[C@@H](CCN)C(=O)N[C@H](C(=O)N[C@@H](CCN)C(=O)N[C@H]2CCNC(=O)[C@H]([C@@H](C)O)NC(=O)[C@H](CCN)NC(=O)[C@H](CCN)NC(=O)[C@H](CC(C)C)NC(=O)[C@@H](CC(C)C)NC(=O)[C@H](CCN)NC2=O)[C@@H](C)O)NC(=O)[C@H](CCN)NC(=O)[C@H](Cc2ccc(O)cc2)NC1=O)C(C)C [Ex. 86] (I: Ac-[dV]CY[Dab]E[dDab][hSer]WS[Tle]C[Thr(ol)] / II: [Dab]T[Dab][Dab][Dab][dL]L[Dab][Dab]T; disulfide I:2-I:11; amide I:5-II:N; lactam II:4-II:C),0.25,0.0625,1,0.25,0.125,0.125,0.125,0.125,<1
CC(C)C[C@@H]1NC(=O)[C@@H](CC(C)C)NC(=O)[C@H](CCN)NC(=O)[C@@H](NC(=O)[C@H](CCN)NC(=O)[C@@H](NC(=O)[C@H](CCN)NC(=O)CC[C@@H]2NC(=O)[C@H](CCN)NC(=O)[C@H](Cc3ccc(O)cc3)NC(=O)[C@@H](NC(=O)[C@@H](O)C(C)C)CSSC[C@@H](C(=O)N[C@H](CO)[C@@H](C)O)NC(=O)[C@H](C(C)(C)C)NC(=O)CNC(=O)[C@H](Cc3c[nH]c4ccccc34)NC(=O)[C@H](CCO)NC(=O)[C@@H](CCN)NC2=O)[C@@H](C)O)CCNC(=O)[C@H]([C@@H](C)O)NC(=O)[C@H](CCN)NC(=O)[C@H](CCN)NC1=O [Ex. 87] (I: H-[Hiv]CY[Dab]E[dDab][hSer]WG[Tle]C[Thr(ol)] / II: [Dab]T[Dab][Dab][Dab][dL]L[Dab][Dab]T; disulfide I:2-I:11; amide I:5-II:N; lactam II:4-II:C),0.25,0.0625,2,0.0625,0.0625,0.125,0.125,0.125,<1
